These are literature values, as cited in patent US20090291104A1 (Florida Atlantic University, priority 2005, published 2009).

This series relates to K+ channels. Particulars: cited from earlier work.

As for “N--DPCYEVCLQHTGNV-KACEEACQ (NDPCYEVCLQHTGNVKACEEACQ; Opisthacanthus madagascarienses) [OmTx3]”, the “rank as K+ channel blocker within the Om-toxin set” value is listed as “best blocker of the Om-toxin set”.
